Results published in ChEMBL document CHEMBL3813676, “2-Benzoyl-6-benzylidenecyclohexanone analogs as potent dual inhibitors of acetylcholinesterase and butyrylcholinesterase” (Bioorg Med Chem, 2016).
Active and inactive are the calls of the source. The rule behind the calls is not given here.

Key:
[1] = target: Cholinesterase (Equus caballus) (UniProt P81908); assay: Inhibition of equine serum BChE preincubated for 15 mins at 10 uM followed by addition of S-butyrylthiocholine iodide as substrate measured after 30 mins by Ellman's microplate assay
Chain of Cholinesterase (Equus caballus) (P81908 whole entry): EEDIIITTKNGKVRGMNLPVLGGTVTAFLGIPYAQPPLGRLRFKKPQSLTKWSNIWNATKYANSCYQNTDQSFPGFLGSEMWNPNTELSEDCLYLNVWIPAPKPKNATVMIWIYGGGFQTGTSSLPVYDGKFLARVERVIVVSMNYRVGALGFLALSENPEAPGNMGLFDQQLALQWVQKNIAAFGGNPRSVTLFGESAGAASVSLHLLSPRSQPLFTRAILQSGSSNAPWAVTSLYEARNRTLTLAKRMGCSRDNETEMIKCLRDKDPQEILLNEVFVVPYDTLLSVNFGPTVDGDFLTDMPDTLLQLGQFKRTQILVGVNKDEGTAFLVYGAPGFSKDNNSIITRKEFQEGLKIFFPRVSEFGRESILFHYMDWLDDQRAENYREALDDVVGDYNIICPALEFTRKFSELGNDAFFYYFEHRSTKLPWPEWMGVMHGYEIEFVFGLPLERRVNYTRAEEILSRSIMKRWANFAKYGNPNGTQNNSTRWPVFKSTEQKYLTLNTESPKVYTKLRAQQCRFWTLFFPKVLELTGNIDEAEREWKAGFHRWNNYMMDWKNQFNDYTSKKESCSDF

[2] = target: Acetylcholinesterase (Electrophorus electricus) (UniProt O42275); assay: Inhibition of electric eel AChE preincubated for 15 mins at 10 uM followed by addition of acetylthiocholine iodide as substrate measured after 30 mins by Ellman's microplate assay
Chain of Acetylcholinesterase (Electrophorus electricus) (O42275 24-633 limits assumed): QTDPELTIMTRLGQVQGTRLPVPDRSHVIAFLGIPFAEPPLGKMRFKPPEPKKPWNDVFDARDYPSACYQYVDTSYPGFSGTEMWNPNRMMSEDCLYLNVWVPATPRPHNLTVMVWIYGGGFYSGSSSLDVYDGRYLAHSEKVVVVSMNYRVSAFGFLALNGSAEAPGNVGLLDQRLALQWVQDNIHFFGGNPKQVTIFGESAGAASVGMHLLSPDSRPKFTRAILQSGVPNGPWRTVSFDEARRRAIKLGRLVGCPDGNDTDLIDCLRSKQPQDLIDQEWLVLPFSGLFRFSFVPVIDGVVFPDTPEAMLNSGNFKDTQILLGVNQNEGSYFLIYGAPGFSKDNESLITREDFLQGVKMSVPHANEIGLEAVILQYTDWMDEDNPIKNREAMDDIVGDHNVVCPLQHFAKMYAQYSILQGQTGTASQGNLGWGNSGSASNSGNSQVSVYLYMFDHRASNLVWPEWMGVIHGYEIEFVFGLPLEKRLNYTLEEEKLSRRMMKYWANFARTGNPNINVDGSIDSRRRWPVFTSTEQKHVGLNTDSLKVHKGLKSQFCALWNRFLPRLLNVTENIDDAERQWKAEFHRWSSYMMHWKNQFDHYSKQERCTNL

[3] = target: T1, Acetylcholinesterase (Electrophorus electricus, UniProt O42275)
T1 sequence (O42275 whole entry): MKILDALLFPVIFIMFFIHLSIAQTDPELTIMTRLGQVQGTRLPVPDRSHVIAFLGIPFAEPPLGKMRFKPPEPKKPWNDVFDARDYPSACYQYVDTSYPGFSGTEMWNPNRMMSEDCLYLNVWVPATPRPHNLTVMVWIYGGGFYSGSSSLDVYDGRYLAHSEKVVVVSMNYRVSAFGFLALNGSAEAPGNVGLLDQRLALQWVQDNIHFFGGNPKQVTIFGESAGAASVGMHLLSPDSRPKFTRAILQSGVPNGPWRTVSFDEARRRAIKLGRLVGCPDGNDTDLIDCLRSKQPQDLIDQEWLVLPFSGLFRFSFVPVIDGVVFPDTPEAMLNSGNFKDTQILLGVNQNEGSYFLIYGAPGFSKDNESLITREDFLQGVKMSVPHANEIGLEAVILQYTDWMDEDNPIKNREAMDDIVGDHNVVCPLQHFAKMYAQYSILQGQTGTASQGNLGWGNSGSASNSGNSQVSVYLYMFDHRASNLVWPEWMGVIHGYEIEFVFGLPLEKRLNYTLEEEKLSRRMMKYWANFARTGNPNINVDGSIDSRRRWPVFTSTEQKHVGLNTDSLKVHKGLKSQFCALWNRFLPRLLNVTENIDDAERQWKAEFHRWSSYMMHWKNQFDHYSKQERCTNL
Description: Inhibition of electric eel AChE preincubated for 15 mins followed by addition of acetylthiocholine iodide as substrate measured after 30 mins by Ellman's microplate assay

[4] = target: T2, Cholinesterase (Equus caballus, UniProt P81908)
T2 sequence (P81908 whole entry): as the sequence (P81908 whole entry) above
Description: Inhibition of equine serum BChE preincubated for 15 mins followed by addition of S-butyrylthiocholine iodide as substrate measured after 30 mins by Ellman's microplate assay

[5] = target: T1, Acetylcholinesterase; assay: Mixed type inhibition of electric eel AChE preincubated for 15 mins followed by addition of acetylthiocholine iodide as substrate measured after 30 mins by Lineweaver-Burk double reciprocal plot analysis
[6] = target: T2, Cholinesterase; assay: Mixed type inhibition of equine serum BChE preincubated for 15 mins followed by addition of S-butyrylthiocholine iodide as substrate measured after 30 mins by Lineweaver-Burk double reciprocal plot analysis

Row | SMILES | inhibition [1] | inhibition [2] | IC50 [3] [µM] | IC50 [4] [nM] | Ki [5] [nM] | Ki [6] [nM]
1 | Cc1cccc(/C=C2\CCCC(C(=O)c3ccccc3)=C2O)c1 | inactive | Active | 8.6 |  |  | 
2 | COc1ccc(OC)c(/C=C2\CCCC(C(=O)c3ccccc3)=C2O)c1 | inactive | inactive |  |  |  | 
3 | O=C(C1=C(O)/C(=C/c2ccc(Cl)cc2Cl)CCC1)c1ccccc1 | inactive | Active | 5.4 |  |  | 
4 | O=C(C1=C(O)/C(=C/c2cccs2)CCC1)c1ccccc1 | inactive | Active | 5.1 |  |  | 
5 | O=C(C1=C(O)/C(=C/c2ccc(O)cc2)CCC1)c1ccccc1 | inactive | inactive |  |  |  | 
6 | O=C(C1=C(O)/C(=C/c2cccc(OCCN3CCCCC3)c2)CCC1)c1ccccc1 | Active | Active | 3.1 | 1400 |  | 
7 | COc1ccc(/C=C2\CCCC(C(=O)c3ccccc3)=C2O)cc1OC | inactive | inactive |  |  |  | 
8 | O=C(C1=C(O)/C(=C/c2ccc(Cl)cc2)CCC1)c1ccccc1 | inactive | Active | 7.6 |  |  | 
9 | COc1ccccc1/C=C1\CCCC(C(=O)c2ccccc2)=C1O | inactive | inactive |  |  |  | 
10 | O=C(C1=C(O)/C(=C/c2ccc(O)c(Br)c2)CCC1)c1ccccc1 | Active | inactive |  | 4700 |  | 
11 | O=C(C1=C(O)/C(=C/c2cccc(Cl)c2Cl)CCC1)c1ccccc1 | inactive | Active | 5.9 |  |  | 
12 | O=C(C1=C(O)/C(=C/c2ccccc2F)CCC1)c1ccccc1 | inactive | Active | 6.6 |  |  | 
13 | O=C(C1=C(O)/C(=C/c2ccc(F)c(F)c2)CCC1)c1ccccc1 | inactive | Active | 8.7 |  |  | 
14 | O=C(C1=C(O)/C(=C/c2ccc3ccccc3c2)CCC1)c1ccccc1 | inactive | Active | 8.3 |  |  | 
15 | O=C(C1=C(O)/C(=C/c2ccc(O)c(Cl)c2)CCC1)c1ccccc1 | Active | inactive |  | 10600 |  | 
16 | O=C(C1=C(O)/C(=C/c2ccccc2Br)CCC1)c1ccccc1 | inactive | Active | 8.4 |  |  | 
17 | O=C(C1=C(O)/C(=C/c2ccc(Cc3ccccc3)cc2)CCC1)c1ccccc1 | inactive | Active | 8.4 |  |  | 
18 | COc1ccc(/C=C2\CCCC(C(=O)c3ccccc3)=C2O)cc1 | inactive | inactive |  |  |  | 
19 | O=C(C1=C(O)/C(=C/c2ccc(Br)cc2)CCC1)c1ccccc1 | inactive | Active | 8.7 |  |  | 
20 | O=C(C1=C(O)/C(=C/c2cccc(Cl)c2)CCC1)c1ccccc1 | inactive | inactive |  |  |  | 
21 | COc1cc(/C=C2\CCCC(C(=O)c3ccccc3)=C2O)ccc1O | inactive | inactive |  |  |  | 

Row | SMILES | inhibition [1] | inhibition [2] | IC50 [3] [µM] | IC50 [4] [nM] | Ki [5] [nM] | Ki [6] [nM]
22 | O=C(C1=C(O)/C(=C/c2cccc3ccccc23)CCC1)c1ccccc1 | inactive | Active | 7.6 |  |  | 
23 | Cc1ccc(/C=C2\CCCC(C(=O)c3ccccc3)=C2O)s1 | inactive | Active | 5.9 |  |  | 
24 | O=C(C1=C(O)/C(=C/c2ccccc2Cl)CCC1)c1ccccc1 | inactive | inactive | 8.2 |  |  | 
25 | O=C(C1=C(O)/C(=C/c2ccc(F)cc2)CCC1)c1ccccc1 | inactive | Active | 6.6 |  |  | 
26 | COc1cc(/C=C2\CCCC(C(=O)c3ccccc3)=C2O)cc(OC)c1OC | inactive | inactive |  |  |  | 
27 | O=C(C1=C(O)/C(=C/c2ccc(Cl)c(Cl)c2)CCC1)c1ccccc1 | inactive | Active | 9.8 |  |  | 
28 | COc1ccc(/C=C2\CCCC(C(=O)c3ccccc3)=C2O)c(OC)c1OC | inactive | inactive |  |  |  | 
29 | COc1cccc(/C=C2\CCCC(C(=O)c3ccccc3)=C2O)c1 | inactive | Active | 7.4 |  |  | 
30 | COc1cccc(/C=C2\CCCC(C(=O)c3ccccc3)=C2O)c1OC | inactive | inactive |  |  |  | 
31 | O=C(C1=C(O)/C(=C/c2ccc(O)c(O)c2)CCC1)c1ccccc1 | Active | inactive |  | 6500 |  | 
32 | Cc1ccc(/C=C2\CCCC(C(=O)c3ccccc3)=C2O)cc1 | inactive | Active | 8.5 |  |  | 
33 | O=C(C1=C(O)/C(=C/c2cccc(Cc3ccccc3)c2)CCC1)c1ccccc1 | inactive | Active | 7.8 |  |  | 
34 | O=C(C1=C(O)/C(=C/c2ccc(OCCN3CCCCC3)cc2)CCC1)c1ccccc1 | Active | Active | 1.6 | 2700 | 1900 | 
35 | O=C(C1=C(O)/C(=C/c2cccc(O)c2)CCC1)c1ccccc1 | inactive | inactive |  |  |  | 
36 | O=C(C1=C(O)/C(=C/c2ccccc2)CCC1)c1ccccc1 | inactive | inactive |  |  |  | 
37 | O=C(C1=C(O)/C(=C/c2cccc(OCCN3CCCC3)c2)CCC1)c1ccccc1 | Active | Active | 3.5 | 600 |  | 200
38 | O=C(C1=C(O)/C(=C/c2ccc(OCCN3CCCC3)cc2)CCC1)c1ccccc1 | Active | Active | 2 | 2300 |  | 
39 | O=C(C1=C(O)/C(=C/c2cccc(F)c2)CCC1)c1ccccc1 | inactive | Active | 9.7 |  |  | 
40 | COc1ccc(/C=C2\CCCC(C(=O)c3ccccc3)=C2O)cc1O | inactive | inactive |  |  |  | 
41 | O=C(C1=C(O)/C(=C/c2ccc(Br)c(Br)c2)CCC1)c1ccccc1 | inactive | Active | 9 |  |  | 
